Source: patent US7608278B2, “Formulations of hydrophobic proteins in an immunogenic composition having improved tolerability” (priority 2003, dated 2009)

How the values were obtained:
[1] = known critical micelle concentrations; cited from earlier work
rat footpad = experiment: Rat footpad (paw-lick) pain test; type: in vivo, Male Sprague Dawley rats
From the text: An animal model, the rat paw-lick (footpad) model, which has previously been employed for detection of pain associated with the injection of antibiotics, was utilized (Celozzi et al. J. Pharmacol. Methods, 1980, 4:[…]; Comerski et al., Fundamental and Appl. Toxicology, 1986, 6:335-338). This model monitors the amount of time the rats spend lifting, licking, and biting the injected paw.
The “rat footpad pain” or “rat paw-lick” test or model as used herein refers to a test or model used to determine the pain induced by a specific formulation upon injection. The test consists of uniformly injecting into the footpad of rats of the same species and approximately the same weights compositions to be assessed as pain causing agents along with compositions known to cause pain at the injection site, as well as compositions known not to cause pain at the injection site. A statistically significant number of animals are to be used for each test and control formulation. After the injection, the animal is placed in a cage with mirrors and then observed by a technician (preferably blinded as to the identity of the immunogenic composition) for 20 to 30 minutes for flinching, lifting, licking, or biting of the injected paw. The amount of time spent on these pain response behaviors are recorded using a stopwatch and summed for 10 minute periods.
The phrase “less painful” as used herein refers to an alteration in the composition that leads to a reduction in the length of time or intensity, or both, of a pain response compared to that of the non-altered composition as measured by the rat footpad pain test. The phrase “50% reduction in pain” as used herein refers to a 50% reduction in the amount of time spent on pain responses as measured by the rat footpad pain test when comparing altered and unaltered immunogenic compositions administered in equal injection volumes by the same means and observed for the same length of time. The number of animals in each group is a statistically significant number. Observation of the different injection groups is preferably done by the same technician and who is blinded as to the identification of the compositions.
Rat footpad pain testing. The immunogenic composition samples were brought to room temperature prior to being administered to the animals. The animals were injected by a technician who was not involved in the monitoring of pain responses. Male Sprague Dawley rats (Crl:CD®(SD)IGS BR, 50-100 g at arrival) from Charles River Laboratories Inc. (Kingston, N.Y.) were used for all studies. The rats were acclimated at the research facility for approximately one week prior to initiation of a study, at which point they weighed 100-150 g. The paw to be injected was examined prior to injection to verify absence of any injury. The animal was then restrained in the technician's arm such that the hind legs extended forward. The right rear leg was grasped just above the hock joint and pressure was exerted to hold the paw straight out, with plantar (sole) facing upwards. Using a new 23 gauge needle for each animal, the operator inserted the bevel side up in the center of paw, parallel to the surface of the paw, until the needle was in the center of the pad. The material was then injected and the needle left in place for 3-5 seconds prior to withdrawal, to minimize leakage from the injection site. […]
The animal was then placed in a cage with 3 mirrors (adjoining sides and floor) and observed by a different technician (blinded as to the identity of the immunogenic composition) for 30 minutes for flinching, lifting, licking, or biting of the injected paw. The length of time spent on these pain response behaviors was recorded using a stopwatch and summed for 10 minute periods. […]
Statistical Analysis. Results were analyzed using an ANOVA method adjusting for multiple comparisons that compared each treatment group with control group who received buffer alone (either PBS or TBS). […]

[2] = Example 9 (Table 15), detergent concentration 0.05%, 200 μl, 8 rats per group

alpha-[4-(1,1,3,3-tetramethylbutyl)phenyl]-omega-hydroxypoly(oxy-1,2-ethanediyl) [TRITON ® X-100]
CMC [1]: 0.2 to 0.9 mM
CMC (%) [1]: 0.013-0.056%
Mean time pain response, 0-10 min. (rat footpad; [2]): 8.5 s
Mean time pain response, 10-20 min. (rat footpad; [2]): 11.2 sec.
Pain in rat footpad model, survey of detergents (result in words) (rat footpad; Example 9, injected at concentrations above the CMC for the detergent): do not cause significant pain
